Results taken from the NIST ThermoML archive (doi:10.1016/j.jct.2009.07.001).

Experiment: excess molar enthalpy (molar enthalpy of mixing); xn = mol fraction of the nth substance listed
Settings: 298.15 K, 101 kPa, Liquid, Calvet calorimetry

CCCCCCCCCCO [decan-1-ol] + CCCCOCCCC
Settings | excess molar enthalpy [kJ/mol]
x1 = 0.0549 | 0.347
x1 = 0.1045 | 0.546
x1 = 0.1508 | 0.667
x1 = 0.1992 | 0.754
x1 = 0.2491 | 0.81
x1 = 0.2975 | 0.853
x1 = 0.3443 | 0.864
x1 = 0.3964 | 0.87
x1 = 0.4484 | 0.896
x1 = 0.4966 | 0.834
x1 = 0.5428 | 0.777
x1 = 0.5887 | 0.732
x1 = 0.646 | 0.657
x1 = 0.6819 | 0.609
x1 = 0.7402 | 0.514
x1 = 0.7812 | 0.442
x1 = 0.8272 | 0.345
x1 = 0.8767 | 0.249
x1 = 0.9225 | 0.149
